Read-outs that look alike come from different tables or passages of the source.
Tested on: participants with idiopathic pulmonary fibrosis (IPF)
[1] = 320 mg (n = 22), treatment up to 40 weeks
[2] = All 40-160 mg (n = 67), 12 weeks
[3] = All 40-320 mg (n = 88), 12 weeks
[4] = pooled 40-160 mg, With Background SoC (n = 55), 12 weeks
[5] = pooled 40-160 mg, With Background SoC nintedanib or pirfenidone (n = 55), 12 weeks
[6] = pooled 40-160 mg, Without Background SoC (n = 12), 12 weeks
[7] = single participant, 320 mg, after week 12, not drug related, resolved
[8] = single participant, 320 mg, after week 12, not drug related, resolved with sequalae

Text: The groups were stratified for the use of nintedanib or pirfenidone. The groups were screened 28 days before the Day 1 of the study. At Day 1, baseline values were collected. During week 12, the subjects received the last dose, and the study was ended at week 14. Primary and secondary endpoints of the study included safety, tolerability, and PK. Exploratory endpoints included change in FVC over 12 weeks; High Resolution CT-based Quantitative Lung Fibrosis (QLF) imaging; patient-reported outcome (PRO): VAS-cough severity; and effect on selected biomarkers.
The groups were stratified for the use of nintedanib or pirfenidone. The screening was done 28 days before Day 1 and the baseline was measured on Day 1. The last dose was on Week 12, and the end of study was on Week 14. The primary and secondary endpoints include safety, tolerability, and PK. Exploratory Endpoints include change in Forced Vital Capacity (FVC) over 12 weeks, High Resolution CT-based Quantitative Lung Fibrosis (QLF) imaging, and effect on selected biomarkers.
The groups were stratified for the use of nintedanib or pirfenidone. The groups were screened 28 days before the Day 1 of the study. At Day 1, baseline values were collected. The study was continued up to Week 48. The treatment duration per protocol is at least 24 weeks and at most 48 weeks. For the study, the primary and secondary endpoints evaluated in the trial were safety, tolerability, and pharmacokinetics. The exploratory endpoints evaluated included the change in FVC over 12 and 24 weeks; high Resolution CT-based Quantitative Lung Fibrosis (QLF) imaging; patient-reported cough severity; and effect on selected biomarkers.

## COCCN(CCCCc1ccc2c(n1)NCCC2)CC[C@H](Nc1ncnc2ccccc12)C(=O)O [Compound 5, (S)-4-((2-methoxyethyl) (4-(5,6,7,8-tetrahydro-1,8-naphthyridin-2-yl)butyl)amino)-2-(quinazolin-4-ylamino) butanoic acid]
[1]
  TEAE Dyspnoea, participants reporting: 5 n
  TEAE Idiopathic Pulmonary Fibrosis related to study drug: 0 n
  TEAE Idiopathic Pulmonary Fibrosis, % of participants: (18.2) %
  TEAE Idiopathic Pulmonary Fibrosis, participants reporting: 4 n
  TEAE Leading to Death: 1 n
  TEAE Leading to Death, % of participants: (4.5) ^3%
  TEAE Leading to Early Termination from Study: 3 n
  TEAE Leading to Early Termination from Study, % of participants: (13.6) ^2,3,4%
  TEAE Leading to Interruption of Study Drug: 4 n
  TEAE Leading to Interruption of Study Drug, % of participants: (18.2) ^2%
  TEAE Leading to Withdrawal of Study Drug: 3 n
  TEAE Leading to Withdrawal of Study Drug, % of participants: (13.6) ^2,3,4%
  TEAE Upper respiratory tract infection related to study drug: 0 n
  TEAE Upper respiratory tract infection, % of participants: (9.1) %
  TEAE Upper respiratory tract infection, participants reporting: 2 n
  TEAE of CTCAE Grade 3 or Higher: 5 n
  TEAE of CTCAE Grade 3 or Higher related to study drug, % of participants: (4.5) ^1%
  TEAE of CTCAE Grade 3 or Higher, % of participants: (22.7) %
  TEAE related to study drug: 5 n
  TEAE related to study drug, % of participants: (22.7) %
  TEAE, % of participants: (90.9) %
  TEAE, participants reporting: 20 n
320 mg (n = 22), treatment up to 40 weeks, blood pressure increased
  TEAE of CTCAE Grade 3 or Higher related to study drug: 1 n
320 mg, long-term treatment up to 40 weeks
  Safety and tolerability: well tolerated
[2]
  Any AEs, % of participants: (68.7) %
  Any AEs, participants reporting: 46 n
  Serious TEAE: 3 n
  Serious TEAE related to study drug: 0 n
  Serious TEAE, % of participants: (4.5) %
  TEAE Diarrhea (any causality), % of participants: (17.9) %
  TEAE Diarrhea (any causality), participants reporting: 12 n
  TEAE Diarrhea related to study drug, % of participants: (11.9) %
  TEAE Diarrhea related to study drug, participants reporting: 8 n
  TEAE Leading to Death: 0 n
  TEAE Leading to Early Termination from Study: 0 n
  TEAE Leading to Interruption of Study Drug: 1 n
  TEAE Leading to Interruption of Study Drug, % of participants: (1.5) %
  TEAE Leading to Withdrawal of Study Drug: 0 n
  TEAE of CTCAE Grade 3 or Higher: 4 n
  TEAE of CTCAE Grade 3 or Higher related to study drug: 1 n
  TEAE of CTCAE Grade 3 or Higher related to study drug, % of participants: (1.5) %
  TEAE of CTCAE Grade 3 or Higher, % of participants: (6.0) %
  TEAE related to study drug: 15 n
  TEAE related to study drug, % of participants: (22.4) %
  TEAE, % of participants: (67.2) %
  TEAE, participants reporting: 45 n
[3]
  Any AEs, % of participants: 72.7%
  Any AEs, participants reporting: 64 n
  Serious TEAE: 4 n
  Serious TEAE related to study drug: 0 n
  Serious TEAE, % of participants: 4.5%
  TEAE Diarrhea (any causality), % of participants: 17.0%
  TEAE Diarrhea (any causality), participants reporting: 15 n
  TEAE Diarrhea related to study drug, % of participants: 11.4%
  TEAE Diarrhea related to study drug, participants reporting: 10 n
  TEAE Leading to Death: 1 n
  TEAE Leading to Death, % of participants: 1.1%
  TEAE Leading to Early Termination from Study: 3 n
  TEAE Leading to Early Termination from Study, % of participants: 3.4%
  TEAE Leading to Interruption of Study Drug: 2 n
  TEAE Leading to Interruption of Study Drug, % of participants: 2.3%
  TEAE Leading to Withdrawal of Study Drug: 3 n
  TEAE Leading to Withdrawal of Study Drug, % of participants: 3.4%
  TEAE of CTCAE Grade 3 or Higher: 6 n
  TEAE of CTCAE Grade 3 or Higher related to study drug: 1 n
  TEAE of CTCAE Grade 3 or Higher related to study drug, % of participants: 1.1%
  TEAE of CTCAE Grade 3 or Higher, % of participants: 6.8%
  TEAE related to study drug: 19 n
  TEAE related to study drug, % of participants: 21.6%
  TEAE, % of participants: 70.5%
  TEAE, participants reporting: 62 n
One participant, 40 mg, not treatment related, dose not changed, recovered/resolved
  SAE Acute respiratory failure: Standard Toxicity Grade: Grade 3
One participant, 160 mg, not treatment related, about 2 weeks after 12-week treatment, not recovered/not resolved
  SAE Idiopathic pulmonary fibrosis (acute exacerbation): Standard Toxicity Grade: Grade 3
One participant, 160 mg, not treatment related, underlying disease, recovered/resolved
  SAE Atrial flutter: Standard Toxicity Grade: Grade 3
One participant, 320 mg, GAP Stage III, after elective atrioventricular node ablation, not treatment related, drug withdrawn, fatal
  SAE Acute respiratory failure: Standard Toxicity Grade: Grade 5
One participant, 320 mg, receiving nintedanib, recovered/resolved
  AE leading to withdrawal, Diarrhea: Standard Toxicity Grade: Grade 1
[4]
  Any AEs, % of participants: (69.1) %
  Serious TEAE, % of participants: (5.5) %
  TEAE of CTCAE Grade 3 or Higher related to study drug, % of participants: (1.8) %
  TEAE of CTCAE Grade 3 or Higher, % of participants: (7.3) %
  TEAE related to study drug, % of participants: (23.6) %
  TEAE, % of participants: (67.3) %
[5]
  Any AEs, participants reporting: 38 n
  Serious TEAE: 3 n
  Serious TEAE related to study drug: 0 n
  TEAE Leading to Death: 0 n
  TEAE Leading to Early Termination from Study: 0 n
  TEAE Leading to Interruption of Study Drug: 0 n
  TEAE Leading to Withdrawal of Study Drug: 0 n
  TEAE of CTCAE Grade 3 or Higher: 4 n
  TEAE of CTCAE Grade 3 or Higher related to study drug: 1 n
  TEAE related to study drug: 13 n
  TEAE, participants reporting: 37 n
[6]
  Any AEs, % of participants: (66.7) %
  Any AEs, participants reporting: 8 n
  Serious TEAE: 0 n
  Serious TEAE related to study drug: 0 n
  TEAE Leading to Death: 0 n
  TEAE Leading to Early Termination from Study: 0 n
  TEAE Leading to Interruption of Study Drug: 1 n
  TEAE Leading to Interruption of Study Drug, % of participants: (8.3) %
  TEAE Leading to Withdrawal of Study Drug: 0 n
  TEAE of CTCAE Grade 3 or Higher: 0 n
  TEAE of CTCAE Grade 3 or Higher related to study drug: 0 n
  TEAE related to study drug: 2 n
  TEAE related to study drug, % of participants: (16.7) %
  TEAE, % of participants: (66.7) %
  TEAE, participants reporting: 8 n
Same participant, 40 mg, not treatment related, removed carpet from home without a mask, recovered/resolved
  SAE Pneumonia: Standard Toxicity Grade: Grade 2
Single participant, 320 mg, Week 29, not drug related, resolved with sequalae
  SAE Iron Deficiency anemia: Standard Toxicity Grade: Grade 3
Single participant, 320 mg, after week 12 (Week 21 hospitalization), not drug related, resolved
  SAE Ileus: Standard Toxicity Grade: Grade 3
[7]
  SAE Acute Kidney Injury: Standard Toxicity Grade: Grade 2
  SAE Gastritis: Standard Toxicity Grade: Grade 2
  SAE Hyperlactatemia: Standard Toxicity Grade: Grade 2
[8]
  SAE Acute Left Heart Failure: Standard Toxicity Grade: Grade 3
  SAE Gastric Ulcer: Standard Toxicity Grade: Grade 3
  SAE Haemorrhagic arteriovenous malformation: Standard Toxicity Grade: Grade 3

Source: patent publication US20240122930A1, “INTEGRIN INHIBITORS AND USES THEREOF IN COMBINATION WITH OTHER AGENTS” (Pliant Therapeutics, Inc., priority 2022, published 2024)
